Test results from US5017557A, “Treatment of infertility with somatotrophin releasing factor” (Industria Farmaceutica Serono S.p.A., priority 1987, dated 1991).
Entries after “also recorded” stand apart in the source; their conditions may differ. No end group written: not given here.

Key:
spermatozoa = test: treatment of male infertility: seminal parameters; format: in vivo, human (patients); settings: oligospermia or azoospermia; 5 mcg/kg s.c. 3 times a week for three months; controls at 45 days and 3 months
Procedure: Patients suffering spermatogenesis deficiences of various entity with oligospermia or azoospermia, selected according to the criteria of the protocol, were treated for a period of three months with GRF-29 at the dosage of 5 mcg/kg s.c. 3 times a week.
The first control was carried out after 45 days from commencement of therapy, and the second control after 3 months.

[1] = tested on: anti-GRF obtained in the rabbit (Amersham) against human GRF-44; settings: rabbit anti-serum against human GRF-44 (Amersham); cited from earlier work
[2] = tested on: follicle in maturative growth; test: echographic monitoring of follicle-genesis (volume/diameter of the follicle in maturative growth) in women; format: in vivo, human (women)
Procedure: In the clinical trials reported below, GRF-29 was used in the form of lyophilized ampoules containing 100 or 150 micrograms (mcg) of GRF and 10 milligrams (mg) of mannitol as excipient. The lyophilized substance, dissolved in 2 ml of physiologic saline, was administered by the intravenous route.
In a clinical study carried out in conformity with the present invention women, both with normal follicle-genesis (as control) and follicle-genesisdeficiency were treated.
The study consisted in echographic and hormonal monitoring of follicle-genesis during which the volume of the follicle in maturative growth and the plasma levels of 17-beta estradiol and 17-alpha OH progesterone were recorded.
In the controls with normal follicle-genesis, 2 monitorings of the follicle-genesis were carried out in accordance with the above mentioned procedures: the first verified the basal situation and the second was under administration of GRF-29 at the dosage of 100 or 150 mcg/day i.v. from the 1st to the 7th day of the cycle.
In patients with follicle-genesis deficiency, monitorings of the follicle-genesis were carried out: without any medicinal administration (as control); under administration of GRF-29 at the dosage of 100 or 150 mcg/day i.v. from the 1st to the 7th day of the cycle; under administration of FSH (METRODIN® at the dosage of 75 or 150 I.U./day i.m. for 7 days; under the combined administration of FSH+GRF at the above dosage.

Sertoli cells = test: GRF binding to isolated Sertoli cells; set-up: species or system rat
From the text: Sertoli cells were isolated from the testicles of 14 day old rats, according to the techniques already decribed (A. Fabbri, et al.--Opiate receptors are present in the rat testis: Identification and localization on Sertoli cells. Endocrinology 117: 2544-2546, 1985). Briefly, the procedure consisted in the separation of the tubular compartment from the Leydig cells by means of enzymatic dispersion with collagenase and subsequent treatment of the tubules with trypsin and collagenase. The separated cells were applied to 48 well Costar plates at the concentration of approximately 100,000 cells per well. The cells were allowed to adhere to the bottom of the wells for 24 hours in a metabolic incubator at 34° C., in 95% O2 /5% CO2. The cells were then washed and incubated in TC 199 10 mM TRIS medium in the presence of iodine labelled GRF-44 at the concentration of 10^-11 M for 60 minutes at 4° C. in the presence or absence of 10^-6 M cold (unlabelled) human GRF-44. Then the cells were washed 3 times with PBS+0.5% BSA at 4° C.; the radio-activity bound to the cells was then solubilized with 0.1N NaOH and read in a gammacounter.

[3] = tested on: serum levels of HGH, Sm-C, prolactin, LH, FSH; settings: intravenous administration, normal subjects during the menstrual cycle; cited from earlier work

Substance	seminal parameters (number of spermatozoa, motility) (spermatozoa)	Cross-reactivity [1] [%]	observation of the cycle (follicular activation, dominance, ovulation, menstrual flow) ([2]; Case 1, normal follicle-genesis, GRF-29 100 mcg/day i.v.)	observation of the cycle (follicular activation, dominance, ovulation, menstrual flow) ([2]; Case 3, patient, GRF-29 150 mcg/day i.v.)	observation of the cycle (follicular activation, dominance, ovulation, menstrual flow) ([2]; Case 4, patient, GRF-29 100 mcg/day i.v.)	observation of the cycle (follicular activation, dominance, ovulation, menstrual flow) ([2]; Case 6, patient, GRF-29 150 mcg/day i.v. day 1-7)	observation of the cycle (follicular activation, dominance, ovulation, menstrual flow) ([2]; Case 7, patient, GRF-29 150 mcg/day i.v. day 1-7)	overall effect on follicle growth and ovulation ([2]; administration during the first phase of the cycle, all cases)	specific binding of GRF to Sertoli cells (Sertoli cells; iodine labelled GRF-44 10^-11 M, 60 minutes at 4° C., with or without 10^-6 M cold human GRF-44)	specific binding of GRF to Sertoli cells (Sertoli cells; recalculated per mg of protein)	effect on serum hormone levels [3]
GRF-29: biologically active fragment of Somatotrophin releasing factor; lyophilized ampoules of 100 or 150 mcg with 10 mg mannitol (YADAIFTNSYRKVLGQLSARKLLQDIMSR; ends and bridges not checked; UniProt P01286 32-60, looked up, fragment)	improvement of the seminal parameters, and especially an increase in the number of spermatozoa and their motility	100	presence of follicular activation and evidence of a dominant follicle between the 13th and the 14th day of the cycle, with ovulation between the 15th and 16th day	presence of follicular activation, dominance and dehiscence	absence of ovulation but follicle-genesis was activated; also recorded: Menstrual flow occurred spontaneously on the 33rd day	good ovarian activation was observed, followed by the growth of two follicles (within a micropolycistic ovary, as stated above), which presented an involution around the 17th day of the cycle	presence of echographic notes of ovarian activation, but absence of follicular dominance	facilitates follicle growth and anticipates, or even induces, ovulation (dehiscence)			
GRF: Somatotrophin releasing factor; measured as immunoreactivity by RIA, binding done with iodine labelled human GRF-44									2.5 fmoles of peptide/70 mcg of protein	about 40 fmoles/mg of protein	produces an increase in serum levels of HGH and Sm-C but not of prolactin, LH or FSH
